Laboratory results taken from PubChem BioAssay AID248 (DTP/NCI, 2004).
“And” between values parts separate entries of the source, which are not always exact repeats. Equal values may be shown once. Inconclusive results and toxic doses are left out. Cut-off read from the data, not from the text of the source: active = T/C of 150% or more; inactive = T/C below 125%. Square brackets hold non-standard residues; d marks the D form. Peptide text beside a SMILES is read from it. * marks the point of attachment. ξ: configuration not given here. Cbz = O=C(OCc1ccccc1)*; ξL = CC(C)CC(N)C(=O)O

Test system: L1210 leukemia ip in BDF1 mice, survival T/C
Assay: NCI In Vivo Anticancer Drug Screen. Data for tumor model L1210 Leukemia (intraperitoneal) in B6D2F1 (BDF1) mice
Details: endpoint: mean survival time, higher = longer survival
Procedure, shortened: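 Read-out is survival time, reported as the treated-group measurement over the vehicle-control measurement.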

[1] = dose: 100.0 mg/kg/injection, schedule: Q01DX001 (ip), vehicle: saline
[2] = dose: 100.0 mg/kg/injection, schedule: Q01DX009 (ip), vehicle: saline
[3] = dose: 100.0 mg/kg/injection, schedule: Q04DX003 (ip), vehicle: saline
[4] = dose: 200.0 mg/kg/injection, schedule: Q01DX001 (ip), vehicle: saline
[5] = dose: 200.0 mg/kg/injection, schedule: Q01DX009 (ip), vehicle: saline
[6] = dose: 200.0 mg/kg/injection, schedule: Q04DX003 (ip), vehicle: saline
[7] = dose: 400.0 mg/kg/injection, schedule: Q01DX001 (ip), vehicle: saline
[8] = dose: 100.0 mg/kg/injection, schedule: Q04DX002 (ip), vehicle: saline with Tween-80
[9] = dose: 200.0 mg/kg/injection, schedule: Q04DX002 (ip), vehicle: saline with Tween-80
[10] = dose: 400.0 mg/kg/injection, schedule: Q04DX002 (ip), vehicle: saline with Tween-80
[11] = dose: 100.0 mg/kg/injection, schedule: Q01DX009 (ip), vehicle: Klucel (hydroxypropylcellulose) (HPC)
[12] = dose: 200.0 mg/kg/injection, schedule: Q01DX009 (ip), vehicle: Klucel (hydroxypropylcellulose) (HPC)
[13] = dose: 400.0 mg/kg/injection, schedule: Q01DX009 (ip), vehicle: Klucel (hydroxypropylcellulose) (HPC)
[14] = dose: 100.0 mg/kg/injection, schedule: Q04DX003 (ip), vehicle: saline with Tween-80
[15] = dose: 200.0 mg/kg/injection, schedule: Q04DX003 (ip), vehicle: saline with Tween-80
[16] = dose: 400.0 mg/kg/injection, schedule: Q04DX003 (ip), vehicle: saline with Tween-80
[17] = dose: 100.0 mg/kg/injection, schedule: Q01DX001 (ip), vehicle: Klucel (hydroxypropylcellulose) (HPC)
[18] = dose: 200.0 mg/kg/injection, schedule: Q01DX001 (ip), vehicle: Klucel (hydroxypropylcellulose) (HPC)
[19] = dose: 400.0 mg/kg/injection, schedule: Q01DX001 (ip), vehicle: Klucel (hydroxypropylcellulose) (HPC)
[20] = dose: 100.0 mg/kg/injection, schedule: Q04DX003 (ip), vehicle: Klucel (hydroxypropylcellulose) (HPC)
[21] = dose: 200.0 mg/kg/injection, schedule: Q04DX003 (ip), vehicle: Klucel (hydroxypropylcellulose) (HPC)
[22] = dose: 400.0 mg/kg/injection, schedule: Q04DX003 (ip), vehicle: Klucel (hydroxypropylcellulose) (HPC)

Measured: T/C

N#CCCS(=O)(=O)O
inactive: [1] 100 % of control | [2] 98 % of control and 122 % of control | dose: 100.0 mg/kg/injection, schedule: Q04DX002 (ip), vehicle: saline 97 % of control | [3] 95 % of control | [4] 97 % of control | [5] 98 % of control and 108 % of control | dose: 200.0 mg/kg/injection, schedule: Q04DX002 (ip), vehicle: saline 106 % of control and 90 % of control | [6] 103 % of control | [7] 105 % of control | dose: 400.0 mg/kg/injection, schedule: Q01DX009 (ip), vehicle: saline 102 % of control and 108 % of control | dose: 400.0 mg/kg/injection, schedule: Q04DX002 (ip), vehicle: saline 87 % of control and 92 % of control | dose: 400.0 mg/kg/injection, schedule: Q04DX003 (ip), vehicle: saline 97 % of control

FC(F)(F)c1cc(Br)c2ccc3ncccc3c2n1
inactive: [8] 111 % of control | [9] 107 % of control | [10] 96 % of control

Cc1cc(OC(=O)Nc2cccc(Cl)c2Cl)c(C(C)C)cc1Cl
inactive: [11] 97 % of control | [12] 94 % of control | [13] 100 % of control

COc1cccc(/C=C/c2nc3ccccc3nc2/C=C/c2cccc(OC)c2OC)c1OC
inactive: dose: 50.0 mg/kg/injection, schedule: Q01DX009 (ip), vehicle: Klucel (hydroxypropylcellulose) (HPC) 95 % of control | [11] 92 % of control | [12] 101 % of control

O=C1CCCCC1CCCBr (stereo not given)
inactive: dose: 100.0 mg/kg/injection, schedule: Q01DX001 (ip), vehicle: saline with Tween-80 102 % of control | dose: 200.0 mg/kg/injection, schedule: Q01DX001 (ip), vehicle: saline with Tween-80 98 % of control | dose: 400.0 mg/kg/injection, schedule: Q01DX001 (ip), vehicle: saline with Tween-80 95 % of control

CC(=O)C(=O)C=C(C(F)(F)F)C(F)(F)F
inactive: [14] 113 % of control | [15] 106 % of control | [16] 101 % of control

O=C(OCCCCCCCCOC(=O)c1cccc([N+](=O)[O-])c1)c1cccc([N+](=O)[O-])c1
inactive: dose: 100.0 mg/kg/injection, schedule: Q01DX001 (ip), vehicle: other 102 % of control | dose: 200.0 mg/kg/injection, schedule: Q01DX001 (ip), vehicle: other 101 % of control | dose: 400.0 mg/kg/injection, schedule: Q01DX001 (ip), vehicle: other 96 % of control

CCCCC(=O)N/N=C/c1cc(I)cc(I)c1O
inactive: [1] 87 % of control | [4] 89 % of control | [7] 87 % of control

CN=C(Nc1ccc(N(C)C)cc1)SC
inactive: dose: 75.0 mg/kg/injection, schedule: Q01DX001 (ip), vehicle: other 105 % of control | dose: 150.0 mg/kg/injection, schedule: Q01DX001 (ip), vehicle: other 103 % of control

CC(O)CN1C(=O)c2cccc3cc([N+](=O)[O-])cc(c23)C1=O (stereo not given)
inactive: [8] 95 % of control | [9] 103 % of control | [10] 98 % of control

O=C(O)C1CCCCC1C(=O)Nc1cccc(C(F)(F)F)c1 (stereo not given)
inactive: dose: 12.5 mg/kg/injection, schedule: Q01DX009 (ip), vehicle: saline with Tween-80 102 % of control | dose: 25.0 mg/kg/injection, schedule: Q01DX009 (ip), vehicle: saline with Tween-80 101 % of control | dose: 50.0 mg/kg/injection, schedule: Q01DX009 (ip), vehicle: saline with Tween-80 88 % of control and 92 % of control | [14] 102 % of control | [15] 92 % of control

O=C1c2ccccc2-c2cccc(I)c21
inactive: dose: 100.0 mg/kg/injection, schedule: Q01DX001 (ip), vehicle: carboxymethylcellulose (CMC) 99 % of control | dose: 200.0 mg/kg/injection, schedule: Q01DX001 (ip), vehicle: carboxymethylcellulose (CMC) 101 % of control | dose: 400.0 mg/kg/injection, schedule: Q01DX001 (ip), vehicle: carboxymethylcellulose (CMC) 92 % of control

Nc1ccc2c(c1)Cc1cc(NC(=O)C(F)(F)F)ccc1-2
inactive: [14] 100 % of control | [15] 96 % of control | [16] 92 % of control

O=[N+]([O-])c1ccc(N/N=C(\Cc2ccccc2)CC(O)(C(F)(F)F)C(F)(F)F)c([N+](=O)[O-])c1
inactive: dose: 25.0 mg/kg/injection, schedule: Q01DX009 (ip), vehicle: gum acacia 92 % of control | dose: 50.0 mg/kg/injection, schedule: Q01DX009 (ip), vehicle: gum acacia 96 % of control | dose: 100.0 mg/kg/injection, schedule: Q01DX001 (ip), vehicle: gum acacia 106 % of control | dose: 100.0 mg/kg/injection, schedule: Q01DX009 (ip), vehicle: gum acacia 98 % of control | dose: 200.0 mg/kg/injection, schedule: Q01DX001 (ip), vehicle: gum acacia 100 % of control | dose: 200.0 mg/kg/injection, schedule: Q01DX009 (ip), vehicle: gum acacia 94 % of control | dose: 400.0 mg/kg/injection, schedule: Q01DX001 (ip), vehicle: gum acacia 98 % of control | dose: 400.0 mg/kg/injection, schedule: Q01DX009 (ip), vehicle: gum acacia 93 % of control

COC(=O)CNC(=O)C(CC(C)C)NC(=O)OCc1ccccc1 (stereo not given) (Cbz-[ξL]-Gly-OMe)
inactive: dose: 50.0 mg/kg/injection, schedule: Q01DX009 (ip), vehicle: saline 98 % of control | dose: 50.0 mg/kg/injection, schedule: Q04DX003 (ip), vehicle: saline 94 % of control | [1] 97 % of control | [2] 100 % of control | [3] 91 % of control | [4] 94 % of control | [5] 98 % of control | [6] 96 % of control

O=C1C=C(c2ccccc2)C(=O)c2ccccc21
inactive: [17] 106 % of control | [18] 101 % of control | [19] 105 % of control

O=C(O)CCCCCCCCC1CC(F)(F)C(F)(F)S1 (stereo not given)
inactive: [14] 92 % of control | [15] 96 % of control | [16] 92 % of control

COc1ccc(C(=O)C(C)C(O)(C(F)(F)F)C(F)(F)F)cc1 (stereo not given)
inactive: dose: 75.0 mg/kg/injection, schedule: Q01DX009 (ip), vehicle: Klucel (hydroxypropylcellulose) (HPC) 97 % of control | [20] 111 % of control | dose: 150.0 mg/kg/injection, schedule: Q01DX009 (ip), vehicle: Klucel (hydroxypropylcellulose) (HPC) 101 % of control | [21] 100 % of control | dose: 300.0 mg/kg/injection, schedule: Q01DX009 (ip), vehicle: Klucel (hydroxypropylcellulose) (HPC) 92 % of control | [22] 100 % of control

O=C(N/N=C/c1ccc(Cl)cc1Cl)c1cccc([N+](=O)[O-])c1
inactive: [11] 100 % of control | [12] 100 % of control | [13] 94 % of control

CCCOC(c1ccc2c(c1)OCO2)C(C)Br (stereo not given)
inactive: [14] 97 % of control | [15] 94 % of control | [16] 94 % of control

O=C(O)c1ccccc1C(=O)c1ccc2cccc(F)c2c1
inactive: [17] 105 % of control | [18] 120 % of control | [19] 100 % of control

O=C(NCCCl)Nc1ccccc1-c1ccccc1
inactive: [20] 101 % of control | [21] 95 % of control | [22] 115 % of control

O=S1(=O)CC(N2CCCCC2)C1CN1CCCCC1 (stereo not given)
inactive: dose: 75.0 mg/kg/injection, schedule: Q01DX001 (ip), vehicle: saline 97 % of control | dose: 150.0 mg/kg/injection, schedule: Q01DX001 (ip), vehicle: saline 89 % of control

Cc1ccc(-n2cnnn2)cc1
inactive: [1] 103 % of control | [4] 104 % of control | [7] 103 % of control

O=C(CBr)c1cccc2c1cc(Br)c1ccccc12
inactive: dose: 13.3 mg/kg/injection, schedule: Q01DX Z (ip), vehicle: methylcellulose (MC) 94 % of control | dose: 20.0 mg/kg/injection, schedule: Q01DX Z (ip), vehicle: methylcellulose (MC) 93 % of control | dose: 30.0 mg/kg/injection, schedule: Q01DX Z (ip), vehicle: methylcellulose (MC) 100 % of control

CCC(C(N)=O)C1=CCCCC1 (stereo not given)
inactive: dose: 100.0 mg/kg/injection, schedule: Q01DX009 (ip), vehicle: saline with Tween-80 95 % of control | dose: 200.0 mg/kg/injection, schedule: Q01DX009 (ip), vehicle: saline with Tween-80 93 % of control | dose: 400.0 mg/kg/injection, schedule: Q01DX009 (ip), vehicle: saline with Tween-80 98 % of control
